Results: US6737383B1, “Herbicidal oxadiazolidines” (priority 1999, dated 2004)

Assays:
[1] = test system: bedstraw; assay: Test B pre/postemergence bedstraw; assay type: in vivo, Galium aparine
Procedure, shortened: (§1)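 Test chemicals in a non-phytotoxic solvent mixture with surfactant were sprayed preemergence onto planted seeds and postemergence onto plants 2 to 18 cm tall (1- to 4-leaf stage). After twelve to sixteen days in a greenhouse, injury was visually rated against untreated controls from 0 (no effect) to 10 (complete control).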

[2] = test system: blackgrass; assay: Test B pre/postemergence blackgrass; assay type: in vivo, Alopecurus myosuroides
Procedure, shortened: as §1

[3] = test system: surinam grass; assay: Test B pre/postemergence surinam grass; assay type: in vivo, Brachiaria decumbens
Procedure, shortened: as §1

[4] = test system: cocklebur; assay: Test B pre/postemergence cocklebur; assay type: in vivo, Xanthium strumarium
Procedure, shortened: as §1

[5] = test system: corn; assay: Test B pre/postemergence corn; assay type: in vivo, Zea mays
Procedure, shortened: as §1

[6] = test system: crabgrass; assay: Test B pre/postemergence crabgrass; assay type: in vivo, Digitaria sanguinalis
Procedure, shortened: as §1

[7] = test system: giant foxtail; assay: Test B pre/postemergence giant foxtail; assay type: in vivo, Setaria faberii
Procedure, shortened: as §1

[8] = test system: morningglory; assay: Test B pre/postemergence morningglory; assay type: in vivo, Ipomoea hederacea
Procedure, shortened: as §1

[9] = test system: pigweed; assay: Test B pre/postemergence pigweed; assay type: in vivo, Amaranthus retroflexus
Procedure, shortened: as §1

[10] = test system: rape; assay: Test B pre/postemergence rape; assay type: in vivo, Brassica napus
Procedure, shortened: as §1

[11] = test system: soybean; assay: Test B pre/postemergence soybean; assay type: in vivo, Glycine max
Procedure, shortened: as §1

[12] = test system: sugar beet; assay: Test B pre/postemergence sugar beet; assay type: in vivo, Beta vulgaris
Procedure, shortened: as §1

[13] = test system: velvetleaf; assay: Test B pre/postemergence velvetleaf; assay type: in vivo, Abutilon theophrasti
Procedure, shortened: as §1

[14] = test system: wheat; assay: Test B pre/postemergence wheat; assay type: in vivo, Triticum aestivum
Procedure, shortened: as §1

[15] = test system: wild oat; assay: Test B pre/postemergence wild oat; assay type: in vivo, Avena fatua
Procedure, shortened: as §1

[16] = test system: purple nutsedge; assay: Test B pre/postemergence purple nutsedge; assay type: in vivo, Cyperus rotundus; settings: Postemergence; for Nutsedge plant response rating: 10 is complete control; for Plant response rating, Nutsedge: scale of 0 to 10 where 0 is no effect and 10 is complete control
Procedure, shortened: as §1

[17] = Postemergence, Rate 125 g/ha, scale 0 to 10, 0 is no effect, 10 is complete control
[18] = Postemergence, Rate 500 g/ha, scale of 0 to 10 where 0 is no effect and 10 is complete control
[19] = Preemergence, Rate 62 g/ha, scale 0 to 10 (0 no effect, 10 complete control)
[20] = Preemergence, Rate 125 g/ha, scale 0 to 10, 0 is no effect, 10 is complete control
[21] = Preemergence, Rate 500 g/ha, scale of 0 to 10 where 0 is no effect and 10 is complete control
[22] = Rate 250 g/ha, Postemergence, scale of 0 to 10 where 0 is no effect and 10 is complete control
[23] = Postemergence, Rate 62 g/ha, scale of 0 to 10, 0 is no effect, 10 is complete control

CC(C)N(C(=O)n1oc(=O)n(CCCF)c1=O)c1ccccc1 [Compound 559]
Bedstraw plant response rating [1, 17]: 0 | Plant response rating, Bedstraw [1, 18]: 4 | Bedstraw plant response rating [1, 19]: 0 | Bedstraw plant response rating [1, 20]: 0 | Bedstraw plant response rating (0 to 10 scale) ([1]; Preemergence, Rate 250 g/ha): 0 | Bedstraw plant response rating [1, 21]: 0 | Plant response rating, Bedstraw [1, 22]: 0 | Blackgrass plant response rating [2, 23]: 7 | Blackgrass plant response rating [2, 17]: 7 | Plant response rating, Blackgrass [2, 18]: 7 | Blackgrass plant response rating [2, 19]: 9 | Blackgrass plant response rating [2, 20]: 10 | Blackgrass plant response rating (0 to 10 scale) ([2]; Preemergence, Rate 250 g/ha): 10 | Blackgrass plant response rating [2, 21]: 10 | Plant response rating, Blackgrass [2, 22]: 7 | B. signalgrass plant response rating [3, 23]: 4 | B. signalgrass plant response rating [3, 17]: 9 | Plant response rating, B. signalgrass [3, 18]: 9 | B. signalgrass plant response rating [3, 19]: 8 | B. signalgrass plant response rating [3, 20]: 10 | B. signalgrass plant response rating (0 to 10 scale, 0 is no effect, 10 is complete control) ([3]; Preemergence, Rate 250 g/ha): 9 | B. signalgrass plant response rating [3, 21]: 9 | Plant response rating, B. signalgrass [3, 22]: 9 | Cocklebur plant response rating [4, 23]: 0 | Cocklebur plant response rating [4, 17]: 0 | Plant response rating, Cocklebur [4, 18]: 2 | Cocklebur plant response rating [4, 19]: 0 | Cocklebur plant response rating [4, 20]: 0 | Cocklebur plant response rating (0 to 10 scale) ([4]; Preemergence, Rate 250 g/ha): 0 | Cocklebur plant response rating [4, 21]: 2 | Plant response rating, Cocklebur [4, 22]: 0 | Corn plant response rating [5, 23]: 0 | Corn plant response rating [5, 17]: 0 | Plant response rating, Corn [5, 18]: 7 | Corn plant response rating [5, 19]: 2 | Corn plant response rating [5, 20]: 3 | Corn plant response rating (0 to 10 scale) ([5]; Preemergence, Rate 250 g/ha): 6 | Corn plant response rating [5, 21]: 6 | Plant response rating, Corn [5, 22]: 6 | Crabgrass plant response rating [6, 23]: 5 | Crabgrass plant response rating [6, 17]: 4 | Plant response rating, Crabgrass [6, 18]: 9 | Crabgrass plant response rating [6, 19]: 9 | Crabgrass plant response rating [6, 20]: 10 | Crabgrass plant response rating (0 to 10 scale) ([6]; Preemergence, Rate 250 g/ha): 10 | Crabgrass plant response rating [6, 21]: 10 | Plant response rating, Crabgrass [6, 22]: 9 | Giant foxtail plant response rating [7, 23]: 9 | Giant foxtail plant response rating [7, 17]: 9 | Plant response rating, Giant foxtail [7, 18]: 9 | Giant foxtail plant response rating [7, 19]: 10 | Giant foxtail plant response rating [7, 20]: 10 | Giant foxtail plant response rating (0 to 10 scale) ([7]; Preemergence, Rate 250 g/ha): 10 | Giant foxtail plant response rating [7, 21]: 10 | Plant response rating, Giant foxtail [7, 22]: 9 | Morningglory plant response rating [8, 23]: 9 | Morningglory plant response rating [8, 17]: 10 | Plant response rating, Morningglory [8, 18]: 10 | Morningglory plant response rating [8, 19]: 0 | Morningglory plant response rating [8, 20]: 2 | Morningglory plant response rating (0 to 10 scale) ([8]; Preemergence, Rate 250 g/ha): 4 | Morningglory plant response rating [8, 21]: 8 | Plant response rating, Morningglory [8, 22]: 9 | Redroot pigweed plant response rating [9, 23]: 0 | Plant response rating, Redroot pigweed [9, 18]: 8 | Redroot pigweed plant response rating [9, 19]: 7 | Redroot pigweed plant response rating [9, 20]: 10 | Redroot pigweed plant response rating (0 to 10 scale) ([9]; Preemergence, Rate 250 g/ha): 10 | Redroot pigweed plant response rating [9, 21]: 10 | Plant response rating, Redroot pigweed [9, 22]: 3 | Rape plant response rating [10, 23]: 0 | Rape plant response rating [10, 17]: 0 | Plant response rating, Rape [10, 18]: 2 | Rape plant response rating [10, 19]: 7 | Rape plant response rating [10, 20]: 9 | Rape plant response rating (0 to 10 scale) ([10]; Preemergence, Rate 250 g/ha): 10 | Rape plant response rating [10, 21]: 10 | Plant response rating, Rape [10, 22]: 2 | Soybean plant response rating [11, 23]: 4 | Plant response rating, Soybean [11, 18]: 6 | Soybean plant response rating [11, 19]: 0 | Soybean plant response rating [11, 20]: 2 | Soybean plant response rating (0 to 10 scale) ([11]; Preemergence, Rate 250 g/ha): 3 | Soybean plant response rating [11, 21]: 3 | Plant response rating, Soybean [11, 22]: 5 | Sugarbeets plant response rating [12, 23]: 0 | Plant response rating, Sugarbeets [12, 18]: 8 | Sugarbeets plant response rating [12, 19]: 3 | Sugarbeets plant response rating [12, 20]: 6 | Sugarbeets plant response rating (0 to 10 scale) ([12]; Preemergence, Rate 250 g/ha): 9 | Sugarbeets plant response rating [12, 21]: 9 | Plant response rating, Sugarbeets [12, 22]: 2 | Velvetleaf plant response rating [13, 23]: 0 | Plant response rating, Velvetleaf [13, 18]: 3 | Velvetleaf plant response rating [13, 19]: 3 | Velvetleaf plant response rating [13, 20]: 4 | Velvetleaf plant response rating (0 to 10 scale) ([13]; Preemergence, Rate 250 g/ha): 6 | Velvetleaf plant response rating [13, 21]: 9 | Plant response rating, Velvetleaf [13, 22]: 2 | Wheat plant response rating [14, 23]: 2 | Plant response rating, Wheat [14, 18]: 3 | Wheat plant response rating [14, 19]: 3 | Wheat plant response rating [14, 20]: 8 | Wheat plant response rating (0 to 10 scale) ([14]; Preemergence, Rate 250 g/ha): 9 | Wheat plant response rating [14, 21]: 9 | Plant response rating, Wheat [14, 22]: 2 | Wild oats plant response rating [15, 23]: 2 | Plant response rating, Wild oats [15, 18]: 5 | Wild oats plant response rating [15, 20]: 9 | Wild oats plant response rating (0 to 10 scale) ([15]; Preemergence, Rate 250 g/ha): 9 | Wild oats plant response rating [15, 21]: 9 | Plant response rating, Wild oats [15, 22]: 4 | Nutsedge plant response rating ([16]; Rate 62 g/ha, scale of 0 to 10, 0 is no effect): 0 | Nutsedge plant response rating ([16]; Rate 125 g/ha, scale 0 to 10, 0 is no effect): 0 | Plant response rating, Nutsedge ([16]; Rate 500 g/ha): 2 | Plant response rating, Nutsedge ([16]; Rate 250 g/ha): 2
